Measured values from ChEMBL document CHEMBL3804787, “Electrophilic Oxidation and [1,2]-Rearrangement of the Biindole Core of Birinapant” (ACS Med Chem Lett, 2016).

Columns and labels:
[1] = Drug level using Birinapant assessed as compound formation by HPLC analysis; assay type: physicochemical
[2] = Drug degradation of the compound at 40 degC/75% RH measured after 1 year by HPLC analysis; assay type: physicochemical; conditions: read-out: Drug degradation

Compound	Drug metabolism [1]	degraded at 8766 h [2] [%]
CC[C@H](NC(=O)[C@H](C)NC)C(=O)N1C[C@@H](O)C[C@H]1C[C@@]1(O)C(c2[nH]c3cc(F)ccc3c2C[C@H]2C[C@@H](O)CN2C(=O)[C@@H](CC)NC(=O)[C@@H](C)NC)=Nc2cc(F)ccc21	metabolite_detected	
CC[C@H](NC(=O)[C@H](C)NC)C(=O)N1C[C@@H](O)C[C@H]1Cc1c(-c2[nH]c3cc(F)ccc3c2C[C@@H]2C[C@H](O)CN2C(=O)[C@H](CC)NC(=O)[C@H](C)NC)[nH]c2cc(F)ccc12 [BIRINAPANT]		> 0.1

The remaining lines, values ahead:

Drug metabolism [1]	degraded at 8766 h [2] [%]	Compound
metabolite_detected		CC[C@H](NC(=O)[C@H](C)NC)C(=O)N1C[C@@H](O)C[C@H]1Cc1c([C@@]2(C[C@@H]3C[C@H](O)CN3C(=O)[C@H](CC)NC(=O)[C@H](C)NC)Nc3cc(F)ccc3C2=O)[nH]c2cc(F)ccc12
metabolite_detected		CC[C@H](NC(=O)[C@H](C)NC)C(=O)N1C[C@@H](O)C[C@H]1Cc1c([C@]2(C[C@@H]3C[C@H](O)CN3C(=O)[C@H](CC)NC(=O)[C@H](C)NC)Nc3cc(F)ccc3C2=O)[nH]c2cc(F)ccc12
metabolite_detected		CC[C@H](NC(=O)[C@H](C)NC)C(=O)N1C[C@@H](O)C[C@H]1C[C@]1(O)C(c2[nH]c3cc(F)ccc3c2C[C@H]2C[C@@H](O)CN2C(=O)[C@@H](CC)NC(=O)[C@@H](C)NC)=Nc2cc(F)ccc21
